Here are results for 19 compounds from article PMC12163657 (ACS Omega, 2025).

Some results are limits rather than exact numbers.

One data set addresses T1, ERα LBD (Homo sapiens, UniProt P03372).
T1 sequence (P03372 311-547 limits assumed): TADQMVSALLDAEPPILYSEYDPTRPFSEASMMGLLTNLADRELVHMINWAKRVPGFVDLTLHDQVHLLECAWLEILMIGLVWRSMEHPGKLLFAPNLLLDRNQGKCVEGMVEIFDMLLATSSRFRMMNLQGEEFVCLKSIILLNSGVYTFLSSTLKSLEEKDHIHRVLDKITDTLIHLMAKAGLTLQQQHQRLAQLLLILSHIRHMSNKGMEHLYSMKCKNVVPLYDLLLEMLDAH
Nature of the data set: LanthaScreen TR-FRET ERα competitive binding assay. A general note: TR-FRET usually uses a lanthanide donor and a delayed reading to cut background.

The target in data set [1] is T2, ERα (Homo sapiens, UniProt P03372).
T2 sequence (P03372 1-595): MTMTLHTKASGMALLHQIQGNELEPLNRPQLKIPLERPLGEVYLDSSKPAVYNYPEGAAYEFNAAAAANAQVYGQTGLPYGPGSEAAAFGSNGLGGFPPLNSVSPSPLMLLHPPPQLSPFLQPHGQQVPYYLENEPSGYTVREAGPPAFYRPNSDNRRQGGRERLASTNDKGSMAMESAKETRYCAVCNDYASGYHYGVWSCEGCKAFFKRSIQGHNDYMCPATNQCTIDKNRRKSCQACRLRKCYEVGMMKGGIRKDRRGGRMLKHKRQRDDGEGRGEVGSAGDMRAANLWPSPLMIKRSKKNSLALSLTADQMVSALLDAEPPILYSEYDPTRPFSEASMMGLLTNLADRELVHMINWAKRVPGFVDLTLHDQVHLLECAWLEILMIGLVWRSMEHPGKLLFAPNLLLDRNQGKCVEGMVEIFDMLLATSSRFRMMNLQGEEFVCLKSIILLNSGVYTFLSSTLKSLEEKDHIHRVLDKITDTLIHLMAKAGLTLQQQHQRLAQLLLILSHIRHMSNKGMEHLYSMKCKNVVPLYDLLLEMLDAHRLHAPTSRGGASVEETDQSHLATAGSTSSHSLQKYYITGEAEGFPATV
Nature of the data set: Alkaline phosphatase. The format is cell-based. The following applies: Ishikawa, read-out: AP % E max, Ishikawa (ECC-1) cells, agonist mode, 72 h.

Data set [2] concerns the target T2, ERα. Briefly: Alkaline phosphatase. The format is cell-based.
Data set [3] can be described thus: Mouse hepatocyte stability. The data set is classed as in vitro ADME. The following applies: hepatocytes.
Data set [4] is described as follows: Human hepatocyte stability. The data set is classed as in vitro ADME. The following applies: hepatocytes.

Broadly, the IC50 is the concentration that inhibits the measured activity by half. By half-life is commonly meant how long it takes for the measured level to halve. Lower therefore signals fast loss. The hepatocyte CLint is the rate of metabolic loss divided by the concentration.

`C[C@@H]1Cc2c([nH]c3ccccc23)[C@@H](c2ccc(CCCN3CC(CF)C3)cc2)N1CC(C)(C)F` [compound 22, C[C@@H]1Cc2c([nH]c3ccccc23)[C@H](N1CC(C)(C)F)c1ccc(cc1)CCCN1CC(CF)C1] had an IC50 on ERα LBD of 1.58 nM. Moreover, the Emax on ERα [1] was more than 50%.
Turning to `CCCN1CC(Cc2ccc([C@@H]3c4[nH]c5ccccc5c4C[C@@H](C)N3CC(C)(C)F)cc2)C1` [compound 24, CCCN1CC(C1)Cc1ccc(cc1)[C@H]1N(CC(C)(C)F)[C@H](C)Cc2c1[nH]c1ccccc21], the IC50 is 3.98 nM at ERα LBD and 3.16 nM against ERα [2]. In addition, the Emax on ERα [1] is 8.5%.
Take `C[C@@H]1Cc2c([nH]c3ccccc23)[C@@H](c2ccc(CCCN3CC(CF)C3)c(F)c2)N1CC(C)(C)F` [compound 25, C[C@@H]1Cc2c([nH]c3ccccc23)[C@H](N1CC(C)(C)F)c1ccc(c(c1)F)CCCN1CC(CF)C1]: the IC50 on ERα LBD is 3.98 nM; against ERα [2] it was 7.94 nM. Also, on ERα [1], the Emax was 22%.
For the compound `C[C@@H]1Cc2c([nH]c3ccccc23)[C@@H](c2ccc(OCCN3CC(CF)C3)c(F)c2)N1CC(C)(C)F` [compound 26, C[C@@H]1Cc2c([nH]c3ccccc23)[C@H](N1CC(C)(C)F)c1ccc(c(c1)F)OCCN1CC(CF)C1], the IC50 is 2.51 nM at ERα LBD and 2 nM on ERα [2]. Moreover, the Emax on ERα [1] amounted to 2.1%. The half-life stood at 3.78 h in data set [3] and 4.55 h in data set [4]. Also, the hepatocyte CLint in data set [3] amounted to 6.1 µL/min/1e6 cells; in data set [4], 5.1 µL/min/1e6 cells.
For `CCCN1CC(Cc2ccc([C@@H]3c4[nH]c5ccccc5c4C[C@@H](C)N3CC(C)(C)F)cc2F)C1` [compound 27, CCCN1CC(C1)Cc1ccc(cc1F)[C@H]1N(CC(C)(C)F)[C@H](C)Cc2c1[nH]c1ccccc21], the IC50 at ERα LBD was 2 nM; at ERα [2], 5.01 nM. In addition, the Emax on ERα [1] was determined as 7.4%.
Turning to `CCCN1CC(Oc2ccc([C@@H]3c4[nH]c5ccccc5c4C[C@@H](C)N3CC(C)(C)F)cc2F)C1` [compound 28, CCCN1CC(C1)Oc1ccc(cc1F)[C@H]1N(CC(C)(C)F)[C@H](C)Cc2c1[nH]c1ccccc21], the IC50 on ERα LBD was 3.98 nM; at ERα [2] it was 10 nM. Moreover, on ERα [1], the Emax is 3.1%.
On to `C[C@@H]1Cc2c([nH]c3ccccc23)[C@@H](c2c(F)cc(CCCN3CC(CF)C3)cc2F)N1CC(C)(C)F` [compound 29, C[C@@H]1Cc2c([nH]c3ccccc23)[C@H](N1CC(C)(C)F)c1c(cc(cc1F)CCCN1CC(CF)C1)F], for which the IC50 on ERα LBD is 2.51 nM.
As to `CCCN1CC(Cc2cc(F)c([C@@H]3c4[nH]c5ccccc5c4C[C@@H](C)N3CC(C)(C)F)c(F)c2)C1` [compound 31, CCCN1CC(C1)Cc1cc(c(c(c1)F)[C@H]1N(CC(C)(C)F)[C@H](C)Cc2c1[nH]c1ccccc21)F], the IC50 at ERα LBD is 5.01 nM; on ERα [2], 1.58 nM. In addition, the Emax at ERα [1] stood at 5.4%. Moreover, the half-life in data set [3] and in data set [4] was more than 6 h throughout. Besides, the hepatocyte CLint in data set [3] and in data set [4] was less than 3.9 µL/min/1e6 cells throughout.
In the case of `C[C@@H]1Cc2c([nH]c3ccccc23)[C@@H](c2ccc(OC3CN(C)C3)cc2)N1CC(C)(C)F` [compound 33, C[C@@H]1Cc2c([nH]c3ccccc23)[C@H](N1CC(C)(C)F)c1ccc(cc1)OC1CN(C)C1], the IC50 was 0.501 nM on ERα LBD and 7.94 nM against ERα [2]. For the same compound, on ERα [1], the Emax worked out at 10%.
At ERα LBD, `CCN1CC(Oc2ccc([C@@H]3c4[nH]c5ccccc5c4C[C@@H](C)N3CC(C)(C)F)cc2)C1` [compound 34, CCN1CC(C1)Oc1ccc(cc1)[C@H]1N(CC(C)(C)F)[C@H](C)Cc2c1[nH]c1ccccc21] had an IC50 of 0.501 nM. Also, the Emax at ERα [1] came to 4.6%.
For `CCCCN1CC(Oc2ccc([C@@H]3c4[nH]c5ccccc5c4C[C@@H](C)N3CC(C)(C)F)cc2)C1` [compound 35, CCCCN1CC(C1)Oc1ccc(cc1)[C@H]1N(CC(C)(C)F)[C@H](C)Cc2c1[nH]c1ccccc21] the same measures were 1.58 nM and 27%.
As to `CCCCCN1CC(Oc2ccc([C@@H]3c4[nH]c5ccccc5c4C[C@@H](C)N3CC(C)(C)F)cc2)C1` [compound 36, CCCCCN1CC(C1)Oc1ccc(cc1)[C@H]1N(CC(C)(C)F)[C@H](C)Cc2c1[nH]c1ccccc21], at ERα LBD, the IC50 is 2.51 nM. In addition, on ERα [1], the Emax amounted to 93%.
Take `CCCN1CC(Oc2ccc([C@@H]3c4[nH]c5ccccc5c4C[C@@H](C)N3C[C@H](C)CO)cc2)C1` [compound 37, CCCN1CC(C1)Oc1ccc(cc1)[C@H]1N(C[C@H](C)CO)[C@H](C)Cc2c1[nH]c1ccccc21]: the IC50 at ERα LBD is 0.501 nM; on ERα [2], 10 nM. The Emax on ERα [1] came to 0.7%.
For the compound `CCCN1CC(Oc2ccc([C@@H]3c4[nH]c5ccccc5c4C[C@@H](C)N3CC(F)(F)CO)cc2)C1` [compound 38, CCCN1CC(C1)Oc1ccc(cc1)[C@H]1N(CC(F)(F)CO)[C@H](C)Cc2c1[nH]c1ccccc21], the figures for the IC50 on ERα LBD and on ERα [2] were 1 nM and 0.158 nM, respectively. Also, the Emax on ERα [1] came to 0%. In addition, the half-life in data set [3] was 3.83 h; in data set [4], 1.27 h. Also, the results for the hepatocyte CLint in data set [3] and in data set [4] were 6 µL/min/1e6 cells and 18.2 µL/min/1e6 cells, respectively.
Turning to `CCCN1CC(Oc2ccc([C@@H]3c4[nH]c5ccccc5c4C[C@@H](C)N3CCC(C)(C)O)cc2)C1` [compound 39, CCCN1CC(C1)Oc1ccc(cc1)[C@H]1N(CCC(C)(C)O)[C@H](C)Cc2c1[nH]c1ccccc21], the IC50 was 1.26 nM at ERα LBD and 398 nM at ERα [2]. In addition, the Emax on ERα [1] stood at 2%.
In the case of `CCCN1CC(Oc2ccc([C@@H]3c4[nH]c5ccccc5c4C[C@@H](C)N3C[C@@H](C)CO)cc2)C1` [compound 40, CCCN1CC(C1)Oc1ccc(cc1)[C@H]1N(C[C@@H](C)CO)[C@H](C)Cc2c1[nH]c1ccccc21], the IC50 on ERα LBD is 1.26 nM; against ERα [2], 3.16 nM. For the same compound, the Emax at ERα [1] is 0.4%. The half-life stood at 3.05 h in data set [3] and 2.62 h in data set [4]. Further, the hepatocyte CLint in data set [3] was determined as 7.6 µL/min/1e6 cells; in data set [4], 8.8 µL/min/1e6 cells.
For the compound `CCCN1CC(Oc2ccc([C@@H]3c4[nH]c5ccccc5c4C[C@@H](C)N3CC(F)(F)COC)cc2)C1` [compound 41, CCCN1CC(C1)Oc1ccc(cc1)[C@H]1N(CC(F)(F)COC)[C@H](C)Cc2c1[nH]c1ccccc21], the IC50 at ERα LBD is 1 nM; on ERα [2], 5.01 nM. Moreover, the “potency loss in AP (antag.) relative to 38” value on ERα [2] (replacing OH with OMe) is on record as 1.5 log. Besides, the Emax at ERα [1] worked out at 0.9%. Moreover, the half-life in data set [3] is 1.27 h; in data set [4], 1.65 h. Besides, the hepatocyte CLint in data set [3] was 18.2 µL/min/1e6 cells; in data set [4], 14.1 µL/min/1e6 cells.
Consider `CCCN1CC(Oc2ccc([C@@H]3c4[nH]c5ccccc5c4C[C@@H](C)N3CCC(C)(C)F)cc2)C1` [compound 42, CCCN1CC(C1)Oc1ccc(cc1)[C@H]1N(CCC(C)(C)F)[C@H](C)Cc2c1[nH]c1ccccc21], for which the IC50 was 15.8 nM at ERα LBD and 50.1 nM at ERα [2]. Further, on ERα [1], the Emax came to 0%.
`C[C@]12CC[C@@H]3c4ccc(O)cc4C[C@@H](CCCCCCCCC[S+]([O-])CCCC(F)(F)C(F)(F)F)[C@H]3[C@@H]1CC[C@@H]2O` (stereo partly shown) [fulvestrant 3, fulvestrant, reference compound]: on ERα [1], the Emax was 0.1%.
